Laboratory results reported in patent US12180249B1, “Compositions and methods for selective labeling of secondary amines” (Emory University, priority 2021, dated 2024).

Assay: chemical stability of the triazene-coupling product under different conditions
Assay type: physicochemical
Settings: incubated in water:ACN mixture for 24 h
Procedure: The chemical stability of the triazene-coupling product was tested under different conditions. The triazene-coupling product acts as a protecting group for secondary amines and tolerates various coupling reagents, such as N,N′-diisopropylcarbodiimide (DIC), and bases, such as N,N-diisopropylethylamine (DIEA) and pyridine (PPR), which is required for Fmoc peptide synthesis. It is also stable to a strong protein disulfide reducing agent tris(2-carboxyethyl) phosphine (TCEP) and click chemistry (CuAAC) conditions. […] This is in contrast to the stability of the azo coupling product with Tyr, which degrades quickly in the presence of sodium dithionate to generate modified tyrosine
Even though the triazene-secondary amine linkage is stable under physiologically relevant conditions, experiments were performed to determine whether the conjugate can be decoupled in a traceless manner. Indeed, exposure of the triazene modified peptide 4 MDz-AKmeF to acidic conditions (10% TFA in H2O) led to its rapid cleavage in 5 min to unchanged peptide AKmeF, as observed by HPLC and MS analysis. It is noteworthy that the acidic cleavage generated original coupling partners in an unperturbed manner. In contrast, a handful of the coupling reactions are reversible, but the products derived from decoupling are modified versions of the original reactants. […]

COC(=O)C1CCCN1N=Nc1ccc(OC)cc1 (stereo not shown) [4 MDz-Pro-OMe]
decomposition of the triazene-coupling product: no decomposition
